In US9994554B2, “Barbiturate and thiobarbiturate compounds for use in cancer therapy” (NUHOPE, LLC, priority 2011, dated 2018):

Columns and labels:
NF215 = assay: Cytotoxicity, NF215 neurofibroma cells; format: cell-based, human
Procedure: Cells of established neurofibroma cell lines were plated at a density of 2000-4000 cells per well in 96 well plates under standard cell culture conditions (54) and then exposed to CC-I for 2 days.

MCF10A = assay: Cytotoxicity, MCF10A; format: cell-based, human; conditions: immortalized, non-transformed mammary epithelial cell line
Procedure: Human glioma cells were ordered from American Type Culture Collection (ATCC, Manassas, Va.), and maintained in DMEM with 4×10^−3M L-glutamine, 100 U/ml penicillin, 100 μg/ml streptomycin, and 10% fetal bovine serum (FBS). All experiments were performed at 37° C. in 5% CO2 atmosphere under cell culture conditions. Prior to γ-radiation or exposure to chemotherapeutic agents, the glioma cells were plated at a density of 156 to 8,000 cells per well in 96 well plates to account for differences in growth rates, and to obtain similar cell densities for the experimental manipulations, and cultured overnight. Then cells received different dosages of γ-radiation from a ^60Co source GammaCell 220 (Nordion International Inc, Ontario, Canada) or chemotherapeutic agents for another 2-6 days. Cell cytotoxicity assay was determined by MTS [3-(4,5-dimethylthiazol-2-yl)-5-(3-carboxymethoxyphenyl)-2-(4-sulfophenyl)-2H-tetrazolium, inner salt] Cell Proliferation Assay (Promega, Madison, Wis.) or sulforhodamine B (SRB) assay at the end of the exposure period (47, 48).

SVGp12 = assay: Cytotoxicity, SVGp12; format: cell-based; conditions: SV40 transformed human astrocyte cell line
Procedure: (§1) Human neuroblastoma cell lines were cultured in Dulbecco's Modified Eagle Medium (DMEM)/F12 media. Human glioma cells were ordered from American Type Culture Collection (ATCC, Manassas, Va.), and maintained in DMEM with 4×10^−3M L-glutamine, 100 U/ml penicillin, 100 μg/ml streptomycin, and 10% fetal bovine serum (FBS). All experiments were performed at 37° C. in 5% CO2 atmosphere under cell culture conditions. Prior to γ-radiation or exposure to chemotherapeutic agents, the glioma cells were plated at a density of 156 to 8,000 cells per well in 96 well plates to account for differences in growth rates, and to obtain similar cell densities for the experimental manipulations, and cultured overnight. […] Cell cytotoxicity assay was determined by MTS [3-(4,5-dimethylthiazol-2-yl)-5-(3-carboxymethoxyphenyl)-2-(4-sulfophenyl)-2H-tetrazolium, inner salt] Cell Proliferation Assay (Promega, Madison, Wis.) or sulforhodamine B (SRB) assay at the end of the exposure period (47, 48).

CCF-STTG1 cells = assay: FITC-Annexin V/propidium iodide apoptosis assay; format: cell-based, human
Procedure: An FITC-labeled Annexin V/propidium iodide apoptosis assay kit (Molecular Probes) was used to determine whether CC-I induces apoptosis in an astrocytoma cell line. […] The percentage of apoptotic cells by the CC-I treatment in CCF-STTG1 cells is from 10.9±0.16% at 5 pig/ml ([…]) to 48.7±0.33% at 10 μg/ml (36.2 μM). By comparison, the positive control, actinomycin D, induced apoptosis in 47.8±0.04% of the cells at 0.05 μg/ml (39.8 nM).

U251 = assay: Cytotoxicity (MTS or SRB assay), U251; format: cell-based; conditions: human astrocytoma or glioblastoma cell line
Procedure: as §1

[1] = system: Human Astrocyte (Normal cells); assay: Cytotoxicity, normal human astrocytes; format: cell-based
Procedure: The human astrocyte cells were cultured from brains of deceased amyotrophic lateral sclerosis (ALS) patients (Uniform Anatomic Gift Act of 1987). The cerebrum was isolated from the other brain regions and meninges and placed in calcium and magnesium-free Hank's buffered salt solution (CMF-HBSS). The cerebrum was diced, incubated with trypsin/EDTA (Gibco BRL, Grand Island, N.Y.) and triturated with DNase. Tissue was passed through a 135 μm Nitex screen (SEFAR America, Depew, N.Y.), washed twice with CMF-HBSS, re-suspended in media (DMEM/10% FBS, 7.5 mM glucose, 4 mM L-glutamine, 1,000 U/mL penicillin, […], 2.5 μg/mL amphotericin B), centrifuged and passed through two sets of 35 μm Nitex screens. Dissociated cells was plated in poly-D-lysine pre-coated 175 cm^2 flasks. The mixed glial cultures were grown for 14 days, and then shaken to dislodge microglia cells and oligodendrocytes that were discarded. The pure astrocytes were attached to the bottom of the flask.

[2] = system: C282Y HFE variant expressing neuroblastoma SH-SY5Y cells; assay: SCID mouse subcutaneous neuroblastoma tumor model; conditions: 25 mg/kg i.p. once a week for 7 weeks
Procedure: To determine the effect of CC-I on neuroblastoma, an in vivo subcutaneous tumor model in SCID mice was examined. One month old, female SCID mice were injected subcutaneously in the flank region with a Temodar®- and radiation-resistant C282Y HFE variant expressing neuroblastoma SH-SY5Y cells. After the tumor attained a volume of 32 mm^3, CC-I (25 mg/kg) was injected intraperitoneally once a week for 7 weeks.

MCF7 = assay: Cytotoxicity, MCF7; format: cell-based; conditions: human breast adenocarcinoma cell line
Procedure: as §1

topoisomerase IIα = topoisomerase IIα (Homo sapiens, UniProt P11388); assay: Supercoiled pHOT1 DNA relaxation assay; format: biochemical
A549 cells = assay: pXC50 on A549 cells (later tests); format: cell-based

Chain of topoisomerase IIα (P11388 whole entry): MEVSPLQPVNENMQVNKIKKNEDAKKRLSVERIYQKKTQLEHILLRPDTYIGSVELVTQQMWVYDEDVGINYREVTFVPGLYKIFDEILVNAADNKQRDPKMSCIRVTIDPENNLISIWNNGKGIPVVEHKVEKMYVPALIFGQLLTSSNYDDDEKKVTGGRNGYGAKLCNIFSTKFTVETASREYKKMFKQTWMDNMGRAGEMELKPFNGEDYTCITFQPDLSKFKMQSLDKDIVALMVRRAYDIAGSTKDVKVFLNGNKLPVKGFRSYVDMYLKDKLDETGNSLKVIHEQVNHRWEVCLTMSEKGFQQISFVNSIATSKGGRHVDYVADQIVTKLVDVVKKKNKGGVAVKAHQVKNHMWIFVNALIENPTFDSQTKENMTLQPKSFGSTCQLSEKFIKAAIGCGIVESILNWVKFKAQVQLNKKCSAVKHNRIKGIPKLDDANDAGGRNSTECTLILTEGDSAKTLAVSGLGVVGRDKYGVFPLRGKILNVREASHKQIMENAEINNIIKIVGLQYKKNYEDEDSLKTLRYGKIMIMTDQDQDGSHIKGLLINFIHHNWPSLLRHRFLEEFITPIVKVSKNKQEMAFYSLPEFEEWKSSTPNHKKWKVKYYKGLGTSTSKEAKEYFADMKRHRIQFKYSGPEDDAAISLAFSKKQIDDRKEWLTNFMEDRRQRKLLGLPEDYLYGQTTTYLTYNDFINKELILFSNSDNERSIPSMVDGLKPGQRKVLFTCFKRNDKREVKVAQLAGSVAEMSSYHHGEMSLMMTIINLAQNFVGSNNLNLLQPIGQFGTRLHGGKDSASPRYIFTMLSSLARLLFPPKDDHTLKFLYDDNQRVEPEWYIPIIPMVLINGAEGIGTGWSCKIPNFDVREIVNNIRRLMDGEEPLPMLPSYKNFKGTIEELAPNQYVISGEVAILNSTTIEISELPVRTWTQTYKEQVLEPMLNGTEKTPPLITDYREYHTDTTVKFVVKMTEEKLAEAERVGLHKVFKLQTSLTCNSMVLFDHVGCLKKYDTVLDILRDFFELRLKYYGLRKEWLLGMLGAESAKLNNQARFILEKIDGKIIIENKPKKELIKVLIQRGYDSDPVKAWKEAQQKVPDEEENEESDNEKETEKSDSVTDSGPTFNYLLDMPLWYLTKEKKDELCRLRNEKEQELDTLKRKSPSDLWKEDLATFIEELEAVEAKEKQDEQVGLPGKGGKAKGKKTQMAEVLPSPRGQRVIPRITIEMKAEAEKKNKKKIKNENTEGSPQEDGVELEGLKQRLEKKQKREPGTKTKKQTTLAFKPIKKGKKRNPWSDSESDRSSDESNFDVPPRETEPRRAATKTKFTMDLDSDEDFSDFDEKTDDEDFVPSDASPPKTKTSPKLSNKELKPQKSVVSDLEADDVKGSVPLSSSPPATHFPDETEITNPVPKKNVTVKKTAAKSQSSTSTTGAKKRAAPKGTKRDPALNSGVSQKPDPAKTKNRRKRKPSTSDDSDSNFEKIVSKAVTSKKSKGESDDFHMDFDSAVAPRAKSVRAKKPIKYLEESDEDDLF

With `CCN1C(=O)C(=C/C=C/c2ccco2)C(=O)NC1=S` [CC-I] the LD50 (NF215; NF215 neurofibroma cells, 2 days exposure) was 1.4 µg/mL, the IC50 (NF215; human neurofibroma cell line) was 5.1 µM and the IC50 (MCF10A) was 6.5 µM. For the same compound, the IC50 (SVGp12) was 4.2 µM, the “percentage of apoptotic cells” value (CCF-STTG1 cells; CCF-STTG1, at 10 μg/ml (36.2 μM)) was 48.7±0.33% and the “percentage of apoptotic cells” value (CCF-STTG1 cells; CCF-STTG1, at 5 pig/ml (18.1 µM)) was 10.9±0.16%. The IC50 (U251) was 3.8 µM, the “toxicity to normal human astrocytes” value ([1]; at concentrations toxic to Temodar-resistant glioma cells) was “not toxic” and the IC50 ([1]; normal cells) was 16.4 µM. For the same compound, the body weight [2] was “unaffected”, the “liver or kidney toxicity” value [2] was “No liver or kidney toxicity” and the tumor growth ([2]; SCID mice) was “completely inhibited tumor growth”. The IC50 (MCF7) was 15.6 µM, the “concentration completely inhibiting topoisomerase IIα catalyzed pHOT1 relaxation” value (topoisomerase IIα) was “greater than 3 μg/ml” and the “most effective concentration on topoisomerase IIα activity” value (topoisomerase IIα) was 3 µg/mL. It also gave a pXC50 (A549 cells) of 4.5.
